# Measurements reported in ChEMBL document CHEMBL5715936, “Selective Itk inhibitors block T-cell activation and murine lung inflammation” (Biochemistry, 2004).
# pIC50: −log10 of the molar value.
# What was measured:
# Mus musculus = experiment: In vivo inhibition of IL-2 production in Balb/c mouse serum administered for 15 mins in presence of anti-CD3 antibody by ELISA analysis; type: functional, organism-based; conditions: dose 50-100 mg/kg, route sc
# [1] = target: T1, Tyrosine-protein kinase ITK/TSK (Homo sapiens) (UniProt Q08881); experiment: Inhibition of Itk in human PBMC cells assessed as inhibition of IL-2 secretion incubated for 16 hrs in presence of anti-CD3 antibody G19-4 by ELISA analysis; type: cell-based
# T1 sequence (whole entry): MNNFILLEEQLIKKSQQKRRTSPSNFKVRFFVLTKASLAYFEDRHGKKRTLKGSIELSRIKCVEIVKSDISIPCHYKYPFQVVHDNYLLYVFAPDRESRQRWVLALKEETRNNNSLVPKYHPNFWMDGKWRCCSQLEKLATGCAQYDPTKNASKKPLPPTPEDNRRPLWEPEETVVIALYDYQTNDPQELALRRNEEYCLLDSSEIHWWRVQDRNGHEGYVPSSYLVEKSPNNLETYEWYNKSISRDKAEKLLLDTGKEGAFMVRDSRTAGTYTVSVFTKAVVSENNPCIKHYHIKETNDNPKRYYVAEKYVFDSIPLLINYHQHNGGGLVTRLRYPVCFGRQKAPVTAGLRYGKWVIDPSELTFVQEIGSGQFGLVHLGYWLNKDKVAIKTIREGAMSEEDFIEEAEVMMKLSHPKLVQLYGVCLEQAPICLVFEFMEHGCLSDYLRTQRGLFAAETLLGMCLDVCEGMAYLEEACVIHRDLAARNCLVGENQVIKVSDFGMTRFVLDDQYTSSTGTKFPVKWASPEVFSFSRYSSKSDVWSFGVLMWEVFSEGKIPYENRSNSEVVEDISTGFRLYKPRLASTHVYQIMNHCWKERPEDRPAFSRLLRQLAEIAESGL
# [2] = target: T1, Tyrosine-protein kinase ITK/TSK (Homo sapiens); experiment: Inhibition of Itk in human Jurkat T cells assessed as inhibition of IL-2 secretion incubated for 16 hrs in presence of anti-CD3 antibody G19-4 by ELISA analysis; type: cell-based
# [3] = target: Epidermal growth factor receptor (Homo sapiens, UniProt P00533); experiment: Inhibition of EGFR (unknown origin) using GST-SLP-76 as peptide substrate incubated for 10 mins in presence of [gamma-33P]ATP by scintillation counter assay
# Protein kinase C (PKC) = experiment: Inhibition of PKC (unknown origin) using GST-SLP-76 as peptide substrate incubated for 10 mins in presence of [gamma-33P]ATP by scintillation counter assay; type: protein assay, Homo sapiens
# Chain of Epidermal growth factor receptor (P00533 whole entry): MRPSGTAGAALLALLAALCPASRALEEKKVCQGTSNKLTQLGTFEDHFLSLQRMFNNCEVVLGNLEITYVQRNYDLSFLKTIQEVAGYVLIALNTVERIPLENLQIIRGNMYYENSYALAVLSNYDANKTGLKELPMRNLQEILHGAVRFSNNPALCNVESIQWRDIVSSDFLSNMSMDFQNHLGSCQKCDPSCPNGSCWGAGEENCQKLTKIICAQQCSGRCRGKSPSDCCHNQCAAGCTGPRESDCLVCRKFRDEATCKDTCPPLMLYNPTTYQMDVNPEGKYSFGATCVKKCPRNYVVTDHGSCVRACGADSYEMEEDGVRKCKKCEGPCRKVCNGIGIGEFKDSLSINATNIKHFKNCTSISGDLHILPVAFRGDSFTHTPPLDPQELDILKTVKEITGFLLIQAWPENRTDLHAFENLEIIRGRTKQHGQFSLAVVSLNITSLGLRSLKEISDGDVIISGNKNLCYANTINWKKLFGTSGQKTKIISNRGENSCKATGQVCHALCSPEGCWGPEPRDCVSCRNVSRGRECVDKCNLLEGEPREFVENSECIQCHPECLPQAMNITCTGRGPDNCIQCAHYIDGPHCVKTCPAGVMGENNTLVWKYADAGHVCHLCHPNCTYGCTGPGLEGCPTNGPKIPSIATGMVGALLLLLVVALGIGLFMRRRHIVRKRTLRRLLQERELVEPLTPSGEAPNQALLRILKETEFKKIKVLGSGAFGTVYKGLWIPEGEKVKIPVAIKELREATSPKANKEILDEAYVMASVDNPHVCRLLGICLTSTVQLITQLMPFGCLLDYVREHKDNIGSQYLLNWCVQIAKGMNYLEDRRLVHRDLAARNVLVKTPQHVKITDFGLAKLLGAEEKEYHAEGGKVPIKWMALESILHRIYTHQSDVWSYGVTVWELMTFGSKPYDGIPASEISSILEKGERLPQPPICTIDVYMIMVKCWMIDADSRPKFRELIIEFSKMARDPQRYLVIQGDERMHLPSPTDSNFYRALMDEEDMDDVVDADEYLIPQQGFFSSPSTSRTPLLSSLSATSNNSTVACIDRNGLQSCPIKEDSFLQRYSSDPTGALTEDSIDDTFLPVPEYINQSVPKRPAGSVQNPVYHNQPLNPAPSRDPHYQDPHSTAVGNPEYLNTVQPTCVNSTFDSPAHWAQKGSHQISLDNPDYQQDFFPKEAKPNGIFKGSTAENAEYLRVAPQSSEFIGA
compound,measurement,setting,value
CC(=O)N1CCN(C(=O)c2cc(CSc3cnc(NC(=O)c4ccc(CNC(C)C(C)(C)C)cc4)s3)cc(C)c2C)CC1 (stereo not given),inhibition,Mus musculus,Dose-Dependent Effect
same,inhibition,[1],Dose-Dependent Effect
same,inhibition,[2],Dose-Dependent Effect
same,pIC50,[3],< 4.30
same,IC50,Protein kinase C (PKC),21 µM
